Source: publication PMC10046377, “Inhibitors of the Oncogenic PA2G4-MYCN Protein-Protein Interface” (Cancers, 2023)

These compounds were tested on PA2G4 (assay: Western blot of PA2G4 protein level). Details: Kelly and SK-N-BE(2)-C cells; #5333/#5338: 48 h, seen more consistently at 30 μM, with the exception of #5333 in SK-N-BE(2)-C.
Assay type: cell-based, human
Procedure: Protein was extracted from cell pellets using RIPA buffer (Sigma) with 10% protease inhibitor (Sigma, Sydney, Australia). Quantification of proteins was conducted using Pierce BCA protein assay kit (Thermo Scientific), according to manufacturer’s instructions. A total of 30–50 μg protein samples were loaded onto Criterion TGX 10% precast gel (Bio-Rad) or NuPAGE™ 4–12% Mini Protein Gel (Invitrogen, Life technologies) and transferred to a nitrocellulose membrane (Bio-Rad). The membrane was blocked in 5% skim milk in Tris-buffered saline with Tween-20 (20 mM Tris-HCl (pH 7.6), 137 mM NaCl, 0.1% Tween-20) for an hour before incubation at 4 °C overnight with the following primary antibodies: mouse anti-MYCN(1:2000, Santa-Cruz, Cat# sc-53993), rabbit anti-PA2G4 (1:2000, Atlas Antibodies, Cat# HPA016484), rabbit anti-PARP (1:1000, Cell Signalling Technologies, Danvers, MA, USA, Cat# 9542), rabbit anti-Caspase-3 (1:500, Cell Signalling Technologies, Cat# 9662), mouse anti-Bcl-2 (1:1000, Cell Signalling Technologies, Cat# 15071), rabbit anti-Bax (1:1000, Cell Signalling Technologies, Cat# 2772), mouse anti-Vinculin (1:2000, Sigma, Cat# V9131), mouse anti-GAPDH (1:2000, Santa-cruz, Cat# sc-365062), rabbit anti-β-actin (1:5000, Sigma, Cat# SAB2100037), rabbit anti-GATA2 (1:1000, Cell Signalling Technologies, Cat# 4595), mouse anti-Flag/DYKDDDDK tag (1:1000, Cell Signalling Technologies, Cat# 8146). Anti-mouse or anti-rabbit horseradish peroxidase secondary antibodies (1:5000, Life technologies, Cat# 31430, 31460) were added and incubated for 2 h at room temperature. Immunoblots were visualised by Clarity ECL reagent (Bio-Rad) and ChemiDoc MP Imaging System (Bio-Rad). Quantification of protein expression was measured by Image Lab software (Bio-Rad) and normalised to loading control.
Next, we examined whether #5333 and #5338 treatment for 48 h affected the levels of WS6 target proteins, PA2G4, and MYCN in neuroblastoma cells. […] Cell viability was measured following #5333 and #5338 treatments for 48–72 h. […] Cell viability was measured following #5333, #5338, or WS6 treatments for 72 h.

SMILES	PA2G4 protein levels (Western blot)
Cc1cccc(Oc2cc(N3CCC(C(=O)NCc4cccc(C(F)(F)F)c4)CC3)ncn2)c1C [#3567]	significantly reduced
Cc1cccc(Oc2cc(N3CCC(C(=O)NCc4cccc(Br)c4)CC3)ncn2)c1C [#5333]	Reductions in PA2G4 levels
Cc1cccc(Oc2cc(N3CCC(C(=O)N[C@@H](C)CCc4ccccc4)CC3)ncn2)c1C [#5338]	Reductions in PA2G4 levels
